Data reported in patent US10130624B2, “Pharmaceutical compositions of amlodipine and benazepril” (LUPIN LIMITED, priority 2005, dated 2018).

Assay: Preformulation compatibility study: amlodipine and benazepril blends, with or without excipients, at accelerated stability conditions; colour change and degradation products by HPLC
Format: physicochemical
Settings: without any excipients
Protocol: The studies were carried out by blending amlodipine & benazepril and then mixing with excipients in amounts intended to be used in the proposed compositions. For example, amlodipine:benazepril:diluent were blended in the ratio 0.7:1:10, amlodipine:benazepril:disintegrant were blended in the ratio 0.7:1:2, amlodipine:benazepril:binder were blended in the ratio 0.7:1:2, and amlodipine:benazepril:lubricant were blended in the ratio 0.7:1:0.5.

For `CCOC(=O)[C@H](CCc1ccccc1)N[C@H]1CCc2ccccc2N(CC(=O)O)C1=O` [Benazepril alone, Benazepril], the “Related substances: Amlodipine impurity D” value (Initial) was 0.000%, the “Related substances: Benazepril impurity C” value (Initial) was 0.130% and the “Related substances: Benazepril impurity G” value (Initial) was 0.060%. For the same compound, the “Related substances: Total impurities” value (Initial) was 0.260%, the “Related substances: Amlodipine impurity D” value (charged on stability, 3M) was 0.000% and the “Related substances: Benazepril impurity C” value (charged on stability, 3M) was 0.143%. The “Related substances: Benazepril impurity G” value (charged on stability, 3M) was 0.000% and the “Related substances: Total impurities” value (charged on stability, 3M) was 0.267%.
